The record followed here is patent US8349880B2, “Bicyclic compounds for the reduction of beta-amyloid production” (Bristol-Myers Squibb Company, priority 2009, dated 2013).

The subject of one assay is Aβ1-42 production. The assay can be described thus: Cellular assay for inhibition of Aβ1-42 production (H4 APP751 SWE clone 8.20). In kind it is cell-based. Conditions: 19 h, H4 APP751 SWE clone 8.20 cells, 19 h incubation; read-out: Activity Rating (Aβ42 cellular IC50, given as a number). How it is done: Cellular assays for inhibition of Aβ1-40 and Aβ1-42 production
H4 cells stably transfected with APP751 containing the Swedish mutation (H4 APP751 SWE clone 8.20, developed at BMS) were maintained in log phase through twice weekly passage at a 1:20 split. For IC50 determinations, 30 μl cells (1.5×10^4 cells/well) in DMEM media containing 0.0125% BSA (Sigma A8412) were plated directly into 384-well compound plates (Costar 3709) containing 0.1 μl serially diluted compound in DMSO. Following incubation for 19 h in 5% CO2 at 37° C., plates were briefly centrifuged (1000 rpm, 5 min). A 10 μl aliquot from each well was transferred to a second assay plate (Costar 3709) for Aβ40 measurements. Antibody cocktails were freshly prepared by dilution into 40 mM Tris-HCl (pH 7.4) with 0.2% BSA and added to assay plates. For Aβ42 measurements, antibodies specific for the Aβ42 neoepitope (565, developed at BMS; conjugated to the Wallac reagent (Perkin Elmer)) and the N-terminal sequence of Aβ peptide (26D6, developed at SIBIA; conjugated to APC (Perkin Elmer)) were mixed and 20 μl of the mixture was added to each well of the incubated cell plate yielding a final concentration of 0.8 ng/well 565 and 75 ng/well 26D6. For the Aβ40 measurements, antibodies specific for the Aβ40 neoepitope (TSD, developed at BMS; conjugated to the Wallac reagent (Perkin Elmer)) and 26D6 as described above were mixed and 20 μl of the mixture was added to the 10 μl aliquots which had been removed previously from the cell plate yielding a final concentration of 1.6 ng/well TSD and 17.5 ng/well 26D6. Assay plates containing antibodies were sealed with aluminum foil and incubated overnight at 4° C. Signal was determined using a Viewlux counter (Perkin Elmer) and IC50 values determined using curve fitting in CurveMaster (Excel Fit based).
For the compound `COc1cc(Nc2nc3n(n2)CCCC[C@H]3c2ccc(OCC(F)(F)F)cc2)ccc1-n1cnc(Cl)c1` (single isomer, unassigned) [Example 106], the IC50 (as a rule, the concentration at which inhibition is half-maximal) turned out to be 5 nM.

Regarding `COc1cc(Nc2nc3n(n2)CCCC[C@@H]3c2ccc(OCC(F)(F)F)cc2)c(F)cc1-n1cnc(C)n1` (single isomer, unassigned) [Example 118], the IC50 is 107 nM.

Consider `C=C1CCn2nc(Nc3ccc(-n4cnc(Cl)c4)c(OC)c3)nc2[C@H](c2ccc(F)cc2)C1` (single isomer, unassigned) [Example 134], for which the IC50 amounted to 3 nM.

With `COc1cc(Nc2nc3n(n2)CC[C@](C)(O)C[C@@H]3c2ccc(F)cc2)ccc1-n1cnc(Cl)c1` (single isomer, unassigned) [Example 149, 2,2,2-trifluoroacetate], the IC50 came out at 2 nM.

Consider `COc1cc(Nc2nc3n(n2)CC=CCC3(C)C)ccc1-n1cnc(Cl)c1` [Example 9, (Z)—N-(4-(4-chloro-1H-imidazol-1-yl)-3-methoxyphenyl)-9,9-dimethyl-8,9-dihydro-5H-[1,2,4]triazolo[1,5-a]azepin-2-amine 2,2,2-trifluoroacetate], for which the half-inhibitory concentration (IC50) was 110 nM.

`Cc1ncn(-c2ccc(Nc3nc4n(n3)CCCC4c3ccc(F)cc3)cc2C#N)n1` (stereo not shown) [Example 11, 5-(8-(4-fluorophenyl)-5,6,7,8-tetrahydro-[1,2,4]triazolo[1,5-a]pyridin-2-ylamino)-2-(3-methyl-1H-1,2,4-triazol-1-yl)benzonitrile, 2,2,2-trifluoroacetate]: the IC50 was found to be 110 nM.

Consider `COc1cc(Nc2nc3n(n2)CCCC3c2ccc(Cl)cc2Cl)ccc1-n1cnc(Cl)c1` (stereo not shown) [Example 12, N-(4-(4-chloro-1H-imidazol-1-yl)-3-methoxyphenyl)-8-(2,4-dichlorophenyl)-5,6,7,8-tetrahydro-[1,2,4]triazolo[1,5-a]pyridin-2-amine], for which the IC50 was 8 nM.

The same assay, now with this note: 19 h, H4 APP751 SWE clone 8.20 cells, 19 h incubation; read-out: Activity Rating (based on Aβ42 cellular IC50 values).
Turning to `Cc1ncnn1-c1ccc(Nc2nc3n(n2)CCCC[C@H]3c2ccc(OC(F)(F)F)cc2)cc1F` (single isomer, unassigned) [Example 100], the IC50 is less than 10 nM.

`Cc1ncnn1-c1ccc(Nc2nc3n(n2)CCCC[C@@H]3c2ccc(OC(F)(F)F)cc2)cc1F` (single isomer, unassigned) [Example 101]: the IC50 was 10 to 100 nM.

Take `COc1cc(Nc2nc3n(n2)CCCC[C@H]3c2ccc(OC(C)C)cc2)ccc1-n1cnc(Cl)c1` (single isomer, unassigned) [Example 103]: the IC50 is less than 10 nM.

As for `COc1cc(Nc2nc3n(n2)CCCC[C@@H]3c2ccc(OC(C)C)cc2)ccc1-n1cnc(Cl)c1` (single isomer, unassigned) [Example 104], the IC50 was 10 to 100 nM.

As to `COc1cc(Nc2nc3n(n2)CCCC[C@@H]3c2ccc(OCC(F)(F)F)cc2)ccc1-n1cnc(Cl)c1` (single isomer, unassigned) [Example 107], the IC50 is 10 to 100 nM.

As to `Cc1ncnn1-c1ccc(Nc2nc3n(n2)CCCC[C@H]3c2ccc(OCC(F)(F)F)cc2)cc1F` (single isomer, unassigned) [Example 111], the IC50 is less than 10 nM.

In the case of `Cc1ncnn1-c1ccc(Nc2nc3n(n2)CCCC[C@@H]3c2ccc(OCC(F)(F)F)cc2)cc1F` (single isomer, unassigned) [Example 112], the IC50 is 10 to 100 nM.

In the case of `Cc1ncn(-c2ccc(Nc3nc4n(n3)CCCC[C@H]4c3ccc(OCC(F)(F)F)cc3)cc2F)n1` (single isomer, unassigned) [Example 114], the IC50 is 10 to 100 nM.

Take `Cc1ncn(-c2ccc(Nc3nc4n(n3)CCCC[C@@H]4c3ccc(OCC(F)(F)F)cc3)cc2F)n1` (single isomer, unassigned) [Example 115]: the IC50 was 10 to 100 nM.

As for `Cc1ncnn1-c1ccc(Nc2nc3n(n2)CCCC[C@H]3c2ccc(OCC(F)F)cc2)cc1F` (single isomer, unassigned) [Example 120], the IC50 lay in the range of 10 to 100 nM.

For `Cc1ncnn1-c1ccc(Nc2nc3n(n2)CCCC[C@@H]3c2ccc(OCC(F)F)cc2)cc1F` (single isomer, unassigned) [Example 121], the IC50 fell in the range of 100 to 1000 nM.

On to `Cc1ncn(-c2ccc(Nc3nc4n(n3)CCC[C@H]4c3ccc(OC(F)(F)F)cc3)cc2F)n1` (single isomer, unassigned) [Example 123], for which the IC50 lay in the range of 100 to 1000 nM.

Take `Cc1ncn(-c2ccc(Nc3nc4n(n3)CCC[C@@H]4c3ccc(OC(F)(F)F)cc3)cc2F)n1` (single isomer, unassigned) [Example 124]: the IC50 fell in the range of 10 to 100 nM.

As for `COc1cc(Nc2nc3n(n2)CCCC[C@@H]3c2ccc(OC(F)(F)F)cc2)ccc1-n1cnc(Cl)c1` (single isomer, unassigned) [Example 125], the IC50 is less than 10 nM.

As to `C=C1CCn2nc(Nc3ccc(-n4cnc(Cl)c4)c(OC)c3)nc2[C@@H](c2ccc(F)cc2)C1` (single isomer, unassigned) [Example 135], the IC50 lay within 10 to 100 nM.

Take `COc1cc(Nc2nc3n(n2)CC[C@@](C)(O)C[C@@H]3c2ccc(F)cc2)ccc1-n1cnc(Cl)c1` (single isomer, unassigned) [Example 148]: the IC50 is less than 10 nM.

Regarding `COc1cc(Nc2nc3n(n2)CCCC[C@H]3c2ccc(OCC(F)F)cc2)ccc1-n1cnc(Cl)c1` (single isomer, unassigned) [Example 162], the IC50 was in the range of 10 to 100 nM.

For `COc1cc(Nc2nc3n(n2)CCCC[C@@H]3c2ccc(OCC(F)F)cc2)ccc1-n1cnc(Cl)c1` (single isomer, unassigned) [Example 163], the IC50 was in the range of 10 to 100 nM.

Regarding `Cc1ncn(-c2ccc(Nc3nc4n(n3)CCCC[C@H]4c3ccc(OC(F)(F)F)c(F)c3)cc2F)n1` (single isomer, unassigned) [Example 165], the IC50 fell in the range of 10 to 100 nM.

Take `Cc1ncn(-c2ccc(Nc3nc4n(n3)CCCC[C@@H]4c3ccc(OC(F)(F)F)c(F)c3)cc2F)n1` (single isomer, unassigned) [Example 166]: the IC50 is less than 10 nM.

Turning to `COc1cc(Nc2nc3n(n2)CCCC[C@H]3c2ccc(OC(F)(F)F)cc2)cc(F)c1-n1cnc(C)n1` (single isomer, unassigned) [Example 168], the IC50 was 10 to 100 nM.

Regarding `COc1cc(Nc2nc3n(n2)CCCC[C@@H]3c2ccc(OC(F)(F)F)cc2)cc(F)c1-n1cnc(C)n1` (single isomer, unassigned) [Example 169], the IC50 is 100 to 1000 nM.

Take `COc1cc(Nc2nc3n(n2)CCCC[C@H]3c2ccc(OC(F)(F)F)cc2)c(F)cc1-n1cnc(C)n1` (single isomer, unassigned) [Example 176]: the IC50 was less than 10 nM.

Consider `COc1cc(Nc2nc3n(n2)CCCC[C@@H]3c2ccc(OC(F)(F)F)cc2)c(F)cc1-n1cnc(C)n1` (single isomer, unassigned) [Example 177], for which the IC50 is 10 to 100 nM.

For the compound `COc1cc(Nc2nc3n(n2)CC=CCC3c2ccc(F)cc2)ccc1-n1cnc(Cl)c1` (stereo not shown) [Example 1, (Z)—N-(4-(4-chloro-1H-imidazol-1-yl)-3-methoxyphenyl)-9-(4-fluorophenyl)-8,9-dihydro-5H-[1,2,4]triazolo[1,5-a]azepin-2-amine], the IC50 is less than 10 nM.

With `COc1cc(Nc2nc3n(n2)CC=CCC3c2ccc(F)cc2)ccc1-n1cnc(C)n1` (stereo not shown) [Example 4, (Z)-9-(4-fluorophenyl)-N-(3-methoxy-4-(3-methyl-1H-1,2,4-triazol-1-yl)phenyl)-8,9-dihydro-5H-[1,2,4]triazolo[1,5-a]azepin-2-amine], the IC50 was 10 to 100 nM.

Regarding `COc1cc(Nc2nc3n(n2)CCCCC3c2ccc(F)cc2)ccc1-n1cnc(C)n1` (stereo not shown) [Example 7, 9-(4-fluorophenyl)-N-(3-methoxy-4-(3-methyl-1H-1,2,4-triazol-1-yl)phenyl)-6,7,8,9-tetrahydro-5H-[1,2,4]triazolo[1,5-a]azepin-2-amine 2,2,2-trifluoroacetate], the IC50 lay within 10 to 100 nM.

As for `COc1cc(Nc2nc3n(n2)CC=CCC3c2ccc(Cl)cc2Cl)ccc1-n1cnc(Cl)c1` (stereo not shown) [Example 8, (Z)—N-(4-(4-chloro-1H-imidazol-1-yl)-3-methoxyphenyl)-9-(2,4-dichlorophenyl)-8,9-dihydro-5H-[1,2,4]triazolo[1,5-a]azepin-2-amine], the IC50 is 10 to 100 nM.

In the case of `COc1cc(Nc2nc3n(n2)CCCC3c2ccc(F)cc2)ccc1-n1cnc(Cl)c1` (stereo not shown) [Example 10, N-(4-(4-chloro-1H-imidazol-1-yl)-3-methoxyphenyl)-8-(4-fluorophenyl)-5,6,7,8-tetrahydro-[1,2,4]triazolo[1,5-a]pyridin-2-amine 2,2,2-trifluoroacetate], the IC50 was 10 to 100 nM.

The same assay, now with this note: H4 APP751 SWE clone 8.20 cells, 19 h incubation; read-out: Activity Rating (based on Aβ42 cellular IC50 values).
Take `COc1cc(Nc2nc3n(n2)CCCC[C@@H]3c2ccc(OC(F)(F)F)cc2)ccc1-n1cnc(Cl)c1` (single isomer, unassigned) [Example 126]: the IC50 was in the range of 10 to 100 nM.
